Assay results published in the CheMixHub viscosity set.

Assay: xn = mol fraction of the nth substance listed

CC[N+](=O)[O-] + Cc1ccc(C)cc1
293.15 K, 101.33 kPa
Conditions | viscosity [mPa·s]
x1 = 0.0968 | 0.633
x1 = 0.1917 | 0.629
x1 = 0.3 | 0.627
x1 = 0.4039 | 0.626
x1 = 0.4933 | 0.626
x1 = 0.6083 | 0.629
x1 = 0.6994 | 0.633
x1 = 0.7938 | 0.644
x1 = 0.9011 | 0.66

CCCCN + CCOC(C)=O
303.15 K, 101 kPa
Conditions | viscosity [mPa·s]
x1 = 0.1573 | 0.4484
x1 = 0.2361 | 0.4671
x1 = 0.312 | 0.4741
x1 = 0.4217 | 0.4759
x1 = 0.5671 | 0.476
x1 = 0.6505 | 0.4772
x1 = 0.7907 | 0.4779
x1 = 0.8803 | 0.4928

CCCCN + COCCO
308.15 K, 101 kPa
Conditions | viscosity [mPa·s]
x2 = 0.1234 | 0.5285
x2 = 0.2404 | 0.6274
x2 = 0.3516 | 0.7219
x2 = 0.4576 | 0.8199
x2 = 0.5606 | 0.9142
x2 = 0.6503 | 0.9868
x2 = 0.7471 | 1.048
x2 = 0.8351 | 1.111
x2 = 0.9193 | 1.173

CCCCN + Cc1ccccc1C
303.15 K, 101 kPa
Conditions | viscosity [mPa·s]
x1 = 0.0811 | 0.648
x1 = 0.1509 | 0.624
x1 = 0.2681 | 0.587
x1 = 0.3574 | 0.56
x1 = 0.4598 | 0.535
x1 = 0.546 | 0.518
x1 = 0.6419 | 0.499
x1 = 0.7306 | 0.484
x1 = 0.8169 | 0.469
x1 = 0.8974 | 0.457
x1 = 0.9503 | 0.45

CCCCCCCCCC(=O)OCC + CCCCCO
viscosity [mPa·s], 100 kPa
Conditions | x1 = 0.1005 | x1 = 0.201 | x1 = 0.3 | x1 = 0.4 | x1 = 0.498 | x1 = 0.5999 | x1 = 0.7009 | x1 = 0.7997 | x1 = 0.8996
293.15 K | 3.246 | 2.808 | 2.563 | 2.417 | 2.33 | 2.29 | 2.258 | 2.259 | 2.289
298.15 K | 2.839 | 2.481 | 2.277 | 2.156 | 2.086 | 2.052 | 2.031 | 2.036 | 2.061
303.15 K | 2.493 | 2.202 | 2.036 | 1.943 | 1.878 | 1.852 | 1.834 | 1.842 | 1.866
308.15 K | 2.218 | 1.965 | 1.827 | 1.744 | 1.698 | 1.683 | 1.668 | 1.676 | 1.702
313.15 K | 1.966 | 1.762 | 1.648 | 1.581 | 1.543 | 1.529 | 1.522 | 1.536 | 1.558
318.15 K | 1.823 | 1.586 | 1.492 | 1.438 | 1.408 | 1.396 | 1.396 | 1.408 | 1.432
